From patent publication US12018016B2, “Aryl sulfonyl (hydroxy) piperidines as CCR6 inhibitors” (CHEMOCENTRYX, INC., priority 2021, dated 2024) come the findings set out here.

For the experiment, the target named is T1, human CCR6 (Homo sapiens, UniProt P51684).
T1 construct: expressed in transfected cells; host or cells: Ba/F3 cells (mouse pro-B line)
T1 sequence (P51684 1-374): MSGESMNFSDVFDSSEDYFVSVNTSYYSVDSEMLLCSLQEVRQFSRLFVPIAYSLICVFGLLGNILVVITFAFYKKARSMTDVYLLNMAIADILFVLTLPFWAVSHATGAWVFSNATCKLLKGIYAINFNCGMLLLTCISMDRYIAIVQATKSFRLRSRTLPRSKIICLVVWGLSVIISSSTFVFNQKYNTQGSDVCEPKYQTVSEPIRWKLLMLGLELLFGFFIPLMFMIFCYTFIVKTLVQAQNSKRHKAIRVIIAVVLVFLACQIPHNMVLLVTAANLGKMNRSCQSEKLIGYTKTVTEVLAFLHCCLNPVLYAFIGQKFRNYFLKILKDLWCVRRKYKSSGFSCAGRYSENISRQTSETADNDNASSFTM
As to the kind of experiment: Migration assay (chemotaxis, ChemoTX). The class given is cell-based. The note with it: hCCR6-transfected Ba/F3 cells in human serum, migration to recombinant human CCL20 10 nM, 37° C. 45 minutes; read-out: Potency (IC50 value in the migration assay). An outline of the steps:
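Ba/F3 cells transfected with human CCR6 and butyrate-primed for 24 h were suspended at 4 million/ml in human serum with compound, serially diluted from a 1 μM final top concentration. Cells migrated through a 5-μm polycarbonate membrane toward 10 nM human CCL20 for 45 min at 37 °C. Migrated cells were quantified by CyQUANT fluorescence.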

For the compound `Cc1c(-c2ccc(S(=O)(=O)N3CC[C@@H](Nc4ccc(C(F)(F)F)cn4)[C@@H](O)C3)cc2)cnc2[nH]ccc12` [Example 60, (3S,4R)-1-((4-(4-methyl-1H-pyrrolo[2,3-b]pyridin-5-yl)phenyl)sulfonyl)-4-((5-(trifluoromethyl)pyridin-2-yl)amino)piperidin-3-ol], the IC50 was < 1 nM. Under `N#Cc1c[nH]c2ncc(-c3ccc(S(=O)(=O)N4CC[C@@H](Nc5ccc(C(F)(F)F)cn5)[C@@H](O)C4)cc3)cc12` [Example 61, 5-(4-(((3S,4R)-3-hydroxy-4-((5-(trifluoromethyl)pyridin-2-yl)amino)piperidin-1-yl)sulfonyl)phenyl)-1H-pyrrolo[2,3-b]pyridine-3-carbonitrile] stands < 1 nM. As to `NC(=O)c1cccc(-c2ccc(S(=O)(=O)N3CC[C@@H](Nc4ccc(C(F)(F)F)cn4)[C@@H](O)C3)cc2)n1` [Example 7, 6-(4-(((3S,4R)-3-Hydroxy-4-((5-(trifluoromethyl)pyridin-2-yl)amino)piperidin-1-yl)sulfonyl)phenyl)picolinamide], the IC50 is < 1 nM. Consider `Cc1ccnc(C)c1-c1ccc(S(=O)(=O)N2CC[C@@H](Nc3ccc(C(F)(F)F)cn3)[C@@H](O)C2)cc1` [Compound 116], for which the IC50 was < 1 nM. Consider `O=C1CNCCN1c1ccc(-c2ccc(S(=O)(=O)N3CC[C@@H](Nc4ccc(C(F)(F)F)cn4)[C@@H](O)C3)cc2)cn1` [Compound 179], for which the IC50 was < 1 nM.

For `CNC(=O)N1Cc2ccc(-c3ccc(S(=O)(=O)N4CC[C@@H](Nc5ccc(C(F)(F)F)cn5)[C@@H](O)C4)cc3)cc2C1` [Compound 187], the IC50 is < 1 nM. Under `CN1CC2(C1)CN(c1ccc(-c3ccc(S(=O)(=O)N4CC[C@@H](Nc5ccc(C(F)(F)F)cn5)[C@@H](O)C4)cc3)cn1)C2` [Compound 99] stands < 1 nM; under `CN(C)C(=O)N1Cc2ccc(-c3ccc(S(=O)(=O)N4CC[C@@H](Nc5ccc(C(F)(F)F)cn5)[C@@H](O)C4)cc3)cc2C1` [Compound 186], < 1 nM.

In the case of `O=C1NCc2ncc(-c3ccc(S(=O)(=O)N4CC[C@@H](Nc5ccc(C(F)(F)F)cn5)[C@@H](O)C4)cc3)cc21` [Example 48, 3-(4-(((3S,4R)-3-hydroxy-4-((5-(trifluoromethyl)pyridin-2-yl)amino)piperidin-1-yl)sulfonyl)phenyl)-6,7-dihydro-5H-pyrrolo[3,4-b]pyridin-5-one], the IC50 is < 1 nM.

Take “4-(4-(((3S,4R)-3-hydroxy-4-((4-(trifluoromethyl)phenyl)amino)piperidin-1-yl)sulfonyl)phenyl)picolinamide [Compound 81]”: the IC50 is < 1 nM.

As for `Cc1cnc(CO)c(C)c1-c1ccc(S(=O)(=O)N2CC[C@@H](Nc3ccc(C(F)(F)F)cn3)[C@@H](O)C2)cc1` [Compound 205], the IC50 lay within 1 to 10 nM.

As for `Cc1cc(-c2ccc(S(=O)(=O)N3CC[C@@H](Nc4ccc(C(F)(F)F)cn4)[C@@H](O)C3)cc2)cc2cn[nH]c12` [Example 16, (3S,4R)-1-((4-(7-methyl-1H-indazol-5-yl)phenyl)sulfonyl)-4-((5-(trifluoromethyl)pyridin-2-yl)amino)piperidin-3-ol], the IC50 was < 1 nM. Next, `Cc1cc(-c2ccc(S(=O)(=O)N3CC[C@@H](Nc4ccc(C(F)(F)F)cn4)[C@@H](O)C3)cc2)ccn1` [Compound 163]: < 1 nM; `NC(=O)c1cc(-c2ccc(S(=O)(=O)N3CC[C@@H](Nc4ncc(C(F)(F)F)cn4)[C@@H](O)C3)cc2)ccn1` [Compound 86, 4-(4-(((3S,4R)-3-hydroxy-4-((5-(trifluoromethyl)pyrimidin-2-yl)amino)piperidin-1-yl)sulfonyl)phenyl)picolinamide]: 10 to 1000 nM. As for `Cc1c(-c2ccc(S(=O)(=O)N3CC[C@@H](Nc4ccc(C(F)(F)F)cn4)[C@@H](O)C3)cc2)cnc2[nH]cc(C#N)c12` [Example 56, 5-(4-(((3S,4R)-3-hydroxy-4-((5-(trifluoromethyl)pyridin-2-yl)amino)piperidin-1-yl)sulfonyl)phenyl)-4-methyl-1H-pyrrolo[2,3-b]pyridine-3-carbonitrile], the IC50 is < 1 nM.

With `N[C@H]1C[C@@H](Nc2ccc(-c3ccc(S(=O)(=O)N4CC[C@@H](Nc5ccc(C(F)(F)F)cn5)[C@@H](O)C4)cc3)cn2)C1` [Compound 97], the IC50 is < 1 nM. Consider `COc1cc(-c2ccc(S(=O)(=O)N3CC[C@@H](Nc4ccc(C(F)(F)F)cn4)[C@@H](O)C3)cc2)cc2cn[nH]c12` [Example 21, (3S,4R)-1-((4-(7-methoxy-1H-indazol-5-yl)phenyl)sulfonyl)-4-((5-(trifluoromethyl)pyridin-2-yl)amino)piperidin-3-ol], for which the IC50 was < 1 nM.

Take `O=S(=O)(c1ccc(-c2cccnc2)cc1)N1CC[C@@H](Nc2ccc(C(F)(F)F)cn2)[C@@H](O)C1` [Compound 162]: the IC50 is < 1 nM.

`O=S(=O)(c1ccc(-c2ccnc(N3CC4(COC4)C3)c2)cc1)N1CC[C@@H](Nc2ccc(C(F)(F)F)cn2)[C@@H](O)C1` [Compound 135]: the IC50 was < 1 nM. Under `COC(=O)c1cc(-c2ccc(S(=O)(=O)N3CC[C@@H](Nc4ccc(C(F)(F)F)cn4)[C@@H](O)C3)cc2)ccn1` [Example 39, Methyl 4-(4-(((3S,4R)-3-hydroxy-4-((5-(trifluoromethyl)pyridin-2-yl)amino)piperidin-1-yl)sulfonyl)phenyl)picolinate] stands < 1 nM. Under `Cc1c(C(N)=O)cncc1-c1ccc(S(=O)(=O)N2CC[C@@H](Nc3ccc(C(F)(F)F)cn3)[C@@H](O)C2)cc1` [Compound 184] stands < 1 nM; under `Cc1c(-c2ccc(S(=O)(=O)N3CC[C@@H](Nc4ccc(C(F)(F)F)cn4)[C@@H](O)C3)cc2)cnc(N)c1C` [Compound 148], < 1 nM; under `CN(C)c1ccc(-c2ccc(S(=O)(=O)N3CC[C@@H](Nc4ccc(C(F)(F)F)cn4)[C@@H](O)C3)cc2)cn1` [Compound 112], < 1 nM.

Regarding `O=S(=O)(c1ccc(-c2ccnc(N3CCOCC3)c2)cc1)N1CC[C@@H](Nc2ccc(C(F)(F)F)cn2)[C@@H](O)C1` [Compound 146], the IC50 is < 1 nM.

For the compound `Nc1nnc(-c2cc(-c3ccc(S(=O)(=O)N4CC[C@@H](Nc5ccc(C(F)(F)F)cn5)[C@@H](O)C4)cc3)ccn2)o1` [Compound 69, (3S,4R)-1-((4-(2-(5-amino-1,3,4-oxadiazol-2-yl)pyridin-4-yl)phenyl)sulfonyl)-4-((5-(trifluoromethyl)pyridin-2-yl)amino)piperidin-3-ol], the IC50 was < 1 nM. Under `CN(C)c1cc(-c2ccc(S(=O)(=O)N3CC[C@@H](Nc4ccc(C(F)(F)F)cn4)[C@@H](O)C3)cc2)ccn1` [Compound 124] stands 1 to 10 nM.

Regarding `Cc1cc(-c2ccc(S(=O)(=O)N3CC[C@@H](Nc4ccc(C(F)(F)F)cn4)[C@@H](O)C3)cc2)cc2cnn(C)c12` [Compound 123], the IC50 is < 1 nM.

Take `NC(=O)c1cc(-c2ccc(S(=O)(=O)N3CC[C@@H](Nc4ccc(C(F)(F)F)cn4)[C@@H](O)C3)cc2)cc(O)n1` [Compound 203]: the IC50 is < 1 nM. Next, `NC(=O)c1cc(-c2ccc(S(=O)(=O)N3CC[C@@H](Nc4ccc(C(F)(F)F)cn4)[C@@H](O)C3)cc2)n[nH]1` [Compound 73, 3-(4-(((3S,4R)-3-hydroxy-4-((5-(trifluoromethyl)pyridin-2-yl)amino)piperidin-1-yl)sulfonyl)phenyl)-1H-pyrazole-5-carboxamide]: 1 to 10 nM; `CC(C)(O)C1CN(c2cc(-c3ccc(S(=O)(=O)N4CC[C@@H](Nc5ccc(C(F)(F)F)cn5)[C@@H](O)C4)cc3)ccn2)C1` [Compound 132]: < 1 nM; `O=S(=O)(c1ccc(-c2cnc3[nH]ccc3c2F)cc1)N1CC[C@@H](Nc2ccc(C(F)(F)F)cn2)[C@@H](O)C1` [Compound 119]: < 1 nM.
